Laboratory results as given in ChEMBL document CHEMBL1201862, “PubChem BioAssay data set” (2004).
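Protocol summary: plate cells (96-well), add compound at 5 concentrations, incubate 48 h, interpolate endpoints linearly. The concentration for 50% growth inhibition is given as GI50.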 The source made the active and inactive calls. No stated cut-off is given here; in the data, active = GI50 up to about 1.1 µM and inactive = higher.

How the values were obtained:
Test in all cases: DTP human tumour cell line panel, 48 h
HT-29 = tested on: HT-29
A549 = tested on: A549
Malme-3M = tested on: Malme-3M
CCRF-CEM = tested on: CCRF-CEM
K562 = tested on: K562
MCF7 = tested on: MCF7
UO-31 = tested on: UO-31
TK-10 = tested on: TK-10
SN12C = tested on: SN12C
MDA-MB-231 = tested on: MDA-MB-231
HCT-116 = tested on: HCT-116
786-0 = tested on: 786-0
OVCAR-8 = tested on: OVCAR-8
MOLT-4 = tested on: MOLT-4
OVCAR-5 = tested on: OVCAR-5
HCC 2998 = tested on: HCC 2998
CAKI-1 = tested on: CAKI-1
NCI-H460 = tested on: NCI-H460
LOX IMVI = tested on: LOX IMVI

| SMILES | GI50 (HT-29) | GI50 (A549) | GI50 (Malme-3M) | GI50 (CCRF-CEM) | GI50 (K562) | GI50 (MCF7) | GI50 (UO-31) | GI50 (TK-10) | GI50 (SN12C) | GI50 (MDA-MB-231) | GI50 (HCT-116) | GI50 (786-0) | GI50 (OVCAR-8) | GI50 (MOLT-4) | GI50 (OVCAR-5) | GI50 (HCC 2998) | GI50 (CAKI-1) | GI50 (NCI-H460) | GI50 (LOX IMVI) |
| --- | --- | --- | --- | --- | --- | --- | --- | --- | --- | --- | --- | --- | --- | --- | --- | --- | --- | --- | --- |
| COc1cc2c(NCCN(C)C)nc3c4cc5c(cc4ccc3c2cc1OC)OCO5 | 3.37 µM (inactive) | 2.75 µM (inactive) | 4.14 µM (inactive) | 1.32 µM (inactive) | 3.23 µM (inactive) | 1.84 µM (inactive) | 3.36 µM (inactive) | 2.72 µM (inactive) | 4.53 µM (inactive) | 5.13 µM (inactive) | 3.3 µM (inactive) | 2.95 µM (inactive) | 3.13 µM (inactive) | 0.242 µM (active) | 3.42 µM (inactive) | 4.59 µM (inactive) | 2.73 µM (inactive) | 0.193 µM (active) | – |
| O=c1c2cc([N+](=O)[O-])ccc2n2n1CCCC2 | > 100 µM (inactive) | > 100 µM (inactive) | > 100 µM (inactive) | > 100 µM (inactive) | > 100 µM (inactive) | – | 71.3 µM (inactive) | 24.2 µM (inactive) | > 100 µM (inactive) | > 100 µM (inactive) | > 100 µM (inactive) | > 100 µM (inactive) | > 100 µM (inactive) | > 100 µM (inactive) | > 100 µM (inactive) | > 100 µM (inactive) | > 100 µM (inactive) | > 100 µM (inactive) | > 100 µM (inactive) |
| CC(C)(C)[Si](C)(C)OCC1CCC(n2cnc3c(NC(=O)c4ccccc4)ncnc32)O1 (stereo unspecified) | 19.1 µM (inactive) | 19 µM (inactive) | 19.9 µM (inactive) | 22 µM (inactive) | 18.7 µM (inactive) | 23.9 µM (inactive) | 1.54 µM (inactive) | 20.5 µM (inactive) | 18 µM (inactive) | 20.7 µM (inactive) | 19 µM (inactive) | 17.5 µM (inactive) | 28.5 µM (inactive) | 18.2 µM (inactive) | 16.7 µM (inactive) | 19.5 µM (inactive) | 21.4 µM (inactive) | 18 µM (inactive) | 20.2 µM (inactive) |
| CCN(CC)CCCC(C)Nc1ccnc2ccc3nn(C)nc3c12 (stereo unspecified) | 26.5 µM (inactive) | 47.9 µM (inactive) | 50.6 µM (inactive) | 25.1 µM (inactive) | 23.4 µM (inactive) | – | 40 µM (inactive) | > 100 µM (inactive) | 38.9 µM (inactive) | – | 26.2 µM (inactive) | 37.3 µM (inactive) | 41.4 µM (inactive) | 25.3 µM (inactive) | > 100 µM (inactive) | 40.2 µM (inactive) | > 100 µM (inactive) | 32.8 µM (inactive) | 17.9 µM (inactive) |
| Cc1cc(N(CCC#N)CCC#N)ccc1/C=C(/NC(=O)/C=C/c1ccccc1)C(N)=O | > 100 µM (inactive) | > 100 µM (inactive) | > 100 µM (inactive) | > 100 µM (inactive) | 62.1 µM (inactive) | – | > 100 µM (inactive) | > 100 µM (inactive) | > 100 µM (inactive) | – | > 100 µM (inactive) | > 100 µM (inactive) | > 100 µM (inactive) | > 100 µM (inactive) | > 100 µM (inactive) | > 100 µM (inactive) | > 100 µM (inactive) | > 100 µM (inactive) | 97.5 µM (inactive) |
| CC1C(O)=C(O)c2ccccc2N1O (stereo unspecified) | 12.2 µM (inactive) | > 100 µM (inactive) | > 100 µM (inactive) | 47.3 µM (inactive) | 38.7 µM (inactive) | – | > 100 µM (inactive) | > 100 µM (inactive) | > 100 µM (inactive) | – | 49.8 µM (inactive) | > 100 µM (inactive) | > 100 µM (inactive) | 77.6 µM (inactive) | > 100 µM (inactive) | > 100 µM (inactive) | > 100 µM (inactive) | > 100 µM (inactive) | 82.2 µM (inactive) |
| COC(=O)/C(=C\c1ccc(N(CCC#N)CCC#N)cc1)NC(=O)c1cc([N+](=O)[O-])ccc1Cl | > 100 µM (inactive) | > 100 µM (inactive) | > 100 µM (inactive) | > 100 µM (inactive) | > 100 µM (inactive) | – | > 100 µM (inactive) | > 100 µM (inactive) | > 100 µM (inactive) | – | > 100 µM (inactive) | > 100 µM (inactive) | > 100 µM (inactive) | > 100 µM (inactive) | > 100 µM (inactive) | > 100 µM (inactive) | > 100 µM (inactive) | > 100 µM (inactive) | > 100 µM (inactive) |
| C/C(=N\NC(=S)N1CCC(N2CCCCC2)CC1)c1ccccn1 | 3.17 µM (inactive) | 3.15 µM (inactive) | > 100 µM (inactive) | 0.661 µM (active) | 1.29 µM (inactive) | 2.87 µM (inactive) | 1.9 µM (inactive) | 2.38 µM (inactive) | 2.7 µM (inactive) | 1.9 µM (inactive) | 2.79 µM (inactive) | 12.7 µM (inactive) | 3.21 µM (inactive) | 0.586 µM (active) | 4.11 µM (inactive) | 11.7 µM (inactive) | 2.07 µM (inactive) | 2.73 µM (inactive) | 2.82 µM (inactive) |
| COC(=O)C1=C(C)NC(=O)N2[C@@H](CCOCc3ccccc3)CC[C@@H]12 | > 50 µM (inactive) | > 50 µM (inactive) | > 50 µM (inactive) | > 50 µM (inactive) | > 50 µM (inactive) | > 50 µM (inactive) | > 50 µM (inactive) | > 50 µM (inactive) | – | > 50 µM (inactive) | – | > 50 µM (inactive) | > 50 µM (inactive) | 47.9 µM (inactive) | > 50 µM (inactive) | > 50 µM (inactive) | > 50 µM (inactive) | > 50 µM (inactive) | > 50 µM (inactive) |
| OCC(O)C(O)C(O)c1nn(-c2ccccc2)c2nc3cc(Cl)c(Cl)cc3nc12 (stereo unspecified) | 24.4 µM (inactive) | 26.7 µM (inactive) | 19.3 µM (inactive) | 40.5 µM (inactive) | 18.6 µM (inactive) | – | 37.2 µM (inactive) | 36.1 µM (inactive) | 41.9 µM (inactive) | – | 54.5 µM (inactive) | 32 µM (inactive) | 70.8 µM (inactive) | 24.5 µM (inactive) | 28.6 µM (inactive) | 32.9 µM (inactive) | 20 µM (inactive) | 44.1 µM (inactive) | 36.5 µM (inactive) |
| CC(=O)OC1C(COC(N)=O)OC(n2c(-c3ccc(C)cc3)cc(-c3ccccc3)c(C#N)c2=O)C(OC(C)=O)C1OC(C)=O (stereo unspecified) | > 100 µM (inactive) | > 100 µM (inactive) | > 100 µM (inactive) | > 100 µM (inactive) | > 100 µM (inactive) | – | 71.9 µM (inactive) | > 100 µM (inactive) | > 100 µM (inactive) | – | > 100 µM (inactive) | > 100 µM (inactive) | > 100 µM (inactive) | > 100 µM (inactive) | > 100 µM (inactive) | 53.7 µM (inactive) | > 100 µM (inactive) | 96.2 µM (inactive) | > 100 µM (inactive) |
| Cc1cc2c(cc1C)[n+]([O-])c(C(=O)CC(=O)C(=O)Nc1c(C(C)C)cccc1C(C)C)c(C)[n+]2[O-] | > 100 µM (inactive) | > 100 µM (inactive) | > 100 µM (inactive) | > 100 µM (inactive) | > 100 µM (inactive) | – | > 100 µM (inactive) | > 100 µM (inactive) | > 100 µM (inactive) | – | > 100 µM (inactive) | > 100 µM (inactive) | > 100 µM (inactive) | > 100 µM (inactive) | > 100 µM (inactive) | > 100 µM (inactive) | > 100 µM (inactive) | > 100 µM (inactive) | > 100 µM (inactive) |
| CP1(=O)CCCCC1 | > 100 µM (inactive) | > 100 µM (inactive) | > 100 µM (inactive) | > 100 µM (inactive) | > 100 µM (inactive) | – | > 100 µM (inactive) | > 100 µM (inactive) | > 100 µM (inactive) | – | > 100 µM (inactive) | > 100 µM (inactive) | > 100 µM (inactive) | > 100 µM (inactive) | > 100 µM (inactive) | > 100 µM (inactive) | > 100 µM (inactive) | > 100 µM (inactive) | > 100 µM (inactive) |
| C=CCCCCCCCCCP(=O)(c1ccccc1)c1ccc2c(c1)OCCOCCOCCOCCO2 (stereo unspecified) | 12.2 µM (inactive) | 14.6 µM (inactive) | 17.7 µM (inactive) | 16.5 µM (inactive) | 9.42 µM (inactive) | – | 10.8 µM (inactive) | 18.4 µM (inactive) | 16.3 µM (inactive) | – | 10.4 µM (inactive) | 16.3 µM (inactive) | 15.9 µM (inactive) | 9.75 µM (inactive) | 17.4 µM (inactive) | 17.3 µM (inactive) | > 100 µM (inactive) | 13.2 µM (inactive) | 15.3 µM (inactive) |
| O=C1C2C3C=CC(C2C(=O)N1CN1CCSCC1)C1C2C(=O)N(CN4CCSCC4)C(=O)C2C31 (stereo unspecified) | > 74 µM (inactive) | 62.1 µM (inactive) | > 100 µM (inactive) | 45.9 µM (inactive) | > 100 µM (inactive) | – | > 100 µM (inactive) | > 100 µM (inactive) | 97.9 µM (inactive) | – | > 41.2 µM (inactive) | > 52.4 µM (inactive) | > 94.2 µM (inactive) | > 78.5 µM (inactive) | > 100 µM (inactive) | > 100 µM (inactive) | > 100 µM (inactive) | 31.2 µM (inactive) | > 53.5 µM (inactive) |
